Measured values taken from patent US20150267113A1, “Dimercaptothiadiazoles to Prevent Corrosion of Mild Steel by Acid Gases in Oil and Gas Products” (BAKER HUGHES INCORPORATED, priority 2014, published 2015).

Legend:
[1] = cited from earlier work
[2] = kettle test of corrosion inhibition, atmospheric CO2, NACE brine/ISOPAR-M; settings: 2.5 or 5 ppm added; 150° F. (66° C.), atmospheric CO2, 90% NACE brine and 10% ISOPAR-M; immediately after injection; blank 140 to 190 mpy
Description: FIG. 1 is a graph of the corrosion rate of mild steel at 150° F. (66° C.) in kettle tests at atmospheric CO2 with two different concentrations of 2,5-dimercapto-1,3,4-thiadiazole in a brine fluid.
A formulation of 10% 2,5-dimercapto-1,3,4 thiadiazole (DMTDA) in water with KOH added to adjust the pH to 8.1 was made. The corrosion inhibition of this formulation was tested in a kettle test at 150° F. (66° C.), atmospheric CO2 in a 90% NACE (National Association of Corrosion Engineers) brine and 10% ISOPAR™-M mixture.
The blank corrosion rates range from 140 to 190 mpy (mils per year). Immediately with the injection of the corrosion inhibitor, the corrosion rate lowered to below 40 mpy in the test with the addition of 2.5 or 5 ppm of 2,5-dimercapto-1,3,4-thiadiazole.

**Q.** For `Sc1nnc(S)s1` [2,5-dimercapto-1,3,4-thiadiazole], which solubility in water [1] is on record?
**A.** 0.01 wt %

**Q.** And the corrosion rate [2]?
**A.** below 40 mpy
